Measurements from patent US6969711B2, “Cyclic diamine compounds and medicine containing the same” (Kowa Company, Ltd., priority 1997, dated 2005).
pIC50: −log10 of the molar value. Values after ≈ are worked out from the molar mass of the structure shown.

Legend:
[1] = Disintegration test (solubility in liquid No. 1 of the Japanese Pharmacopoeia); type: physicochemical; conditions: simulated gastric fluid, thermodynamic from solid; liquid No. 1 for disintegration test (Japanese Pharmacopoeia), pH 1.2, shaken two hours, room temperature, 0.45 μm filtrate
Text: Compounds of the present invention and the compounds mentioned in the previously-filed Japanese Patent Applications Hei-09/88660 (hereinafter, referred to as “A”) and Hei-09/90146 (hereinafter, referred to as “B”) as controls were suspended in a liquid No. 1 for disintegration test regulated by the Japanese Pharmacopoeia, shaken for two hours, allowed to stand at room temperature for one hour and filtered through a membrane filter of 0.45 μm. Absorbance of a mixture of this filtrate with methanol in the same amounts was measured and, from the previously-determined ε1% 1cm values, solubility was calculated.

J774 cells = test: ACAT inhibitory action (anti-foaming action) in J774 cells; type: cell-based; conditions: Mus musculus, 10 μg/ml 25-OH cholesterol, 18 hours, cholesterol ester per protein, read-out: Enzyme (J774) IC50
HepG2 cells = test: ACAT inhibitory action (anti-foaming action) in HepG2 cells; type: cell-based; conditions: Homo sapiens, 10 μg/ml 25-OH cholesterol, 18 hours, cholesterol ester per protein, read-out: Enzyme (HepG2) IC50

Structure (SMILES)	solubility at 2 h [1]	melting point	pIC50 (J774 cells)	pIC50 (HepG2 cells)
CC(C)c1cccc(C(C)C)c1NC(=O)CN1CCN(CCSc2nc3ccccc3o2)CC1 [Example 1, 2-[4-[2-(benzoxazol-2-ylthio)ethyl]-piperazin-1-yl]-N-(2,6-diisopropylphenyl)acetamide]	14000 µg/mL (≈ 29.1 mM)			
CC(C)c1cccc(C(C)C)c1NC(=O)CCCCCSc1nc2cc(CN(C)C)ccc2o1 [Control 7, 6-[5-(N,N-Dimethylaminomethyl)-benzoxazol-2-ylthio]-N-(2,6-diisopropylphenyl)hexanamide, reference compound]	360 to 400 µg/mL (≈ 0.747 to 0.83 mM)			
CC(C)c1cccc(C(C)C)c1NC(=O)CCCCCSc1nc2ccccc2o1 [Control 6, 6-(Benzoxazol-2-ylthio)-N-(2,6-diisopropylphenyl)hexanamide, reference compound]	0.05 µg/mL (≈ 0.000118 mM)			
CSc1cc(C)nc(SC)c1NC(=O)CN1CCN(CCSc2nc3ccccc3o2)CC1 [Example 24, 2-[4-[2-(benzoxazol-2-ylthio)ethyl]piperazin-1-yl]-N-(2,4-bis(methylthio)-6-methyl-3-pyridyl)acetamide]	17000 µg/mL (≈ 33.7 mM)	140 to 141 °C		
CCCCCCCCCN(CC(C)(C)C)C(=O)N[C@H]1CCCC[C@@H]1OC(=O)CCNC(=O)C1OC(C)(C)OCC1(C)C (stereo partly drawn) [Control 3, reference compound]			6.49	
CC(C)c1cccc(C(C)C)c1NC(=O)CN1CCCN(CCCSc2nc3ccccc3o2)CC1 [Example 13, 2-[4-[3-(benzoxazol-2-ylthio)propyl]-homopiperazin-1-yl]-N-(2,6-diisopropylphenyl)acetamide]	7400 µg/mL (≈ 14.5 mM)	109 to 111 °C		
COC(=O)c1cccc2oc(SCCN3CCN(CC(=O)Nc4c(C(C)C)cccc4C(C)C)CC3)nc12 [Example 5, 2-[4-[2-(4-methoxycarbonylbenzoxazol-2-ylthio)ethyl]-piperazin-1-yl]-N-(2,6-diisopropylphenyl)acetamide]		173 to 175 °C	7.00	5.84
COC(=O)c1cccc2nc(SCCCN3CCN(CC(=O)Nc4c(C(C)C)cccc4C(C)C)CC3)oc12 [Example 10, 2-[4-[3-(7-methoxycarbonylbenzoxazol-2-ylthio)propyl]piperazin-1-yl]-N-(2,6-diisopropylphenyl)acetamide]		135 to 136 °C	6.57	5.31
CC(C)c1cccc(C(C)C)c1NC(=O)CN1CCN(CCSc2nc3ncccc3o2)CC1 [Example 6, 2-[4-[2-(oxazolo[4,5-b]pyridine-2-ylthio)ethyl]-piperazin-1-yl]-N-(2,6-diisopropylphenyl)acetamide]	35000 µg/mL (≈ 72.7 mM)	153 to 154 °C		
CC(C)c1cccc(C(C)C)c1NC(=O)CCCCCSc1nc2cc(N(C)C)ccc2o1 [Control 8, 6-[5-(N,N-Dimethylamino)-benzoxazol-2-ylthio]-N-(2,6-diisopropylphenyl)hexanamide, reference compound]	170 to 180 µg/mL (≈ 0.363 to 0.385 mM)			
CCCCCCCN(CCN1CCN(CCSc2nc3cccc(C(=O)OC)c3o2)CC1)C(=O)Nc1c(C(C)C)cccc1C(C)C [Example 17, N′-(2,6-diisopropylphenyl)-N-heptyl-N-[2-[4-[2-(7-methoxycarbonylbenzoxazol-2-ylthio)-ethyl]piperazin-1-yl]ethyl]urea]		125 to 126 °C		
